The values that follow come from patent US8143263B2, “Therapeutic agents” (Astrazeneca AB, priority 2008, dated 2012).

Molecules are shown by their SMILES. Some results are limits rather than exact numbers.

The target in this assay is T1, recombinant human pancreatic GLK (Homo sapiens, UniProt P35557).
T1 sequence (P35557 1-465): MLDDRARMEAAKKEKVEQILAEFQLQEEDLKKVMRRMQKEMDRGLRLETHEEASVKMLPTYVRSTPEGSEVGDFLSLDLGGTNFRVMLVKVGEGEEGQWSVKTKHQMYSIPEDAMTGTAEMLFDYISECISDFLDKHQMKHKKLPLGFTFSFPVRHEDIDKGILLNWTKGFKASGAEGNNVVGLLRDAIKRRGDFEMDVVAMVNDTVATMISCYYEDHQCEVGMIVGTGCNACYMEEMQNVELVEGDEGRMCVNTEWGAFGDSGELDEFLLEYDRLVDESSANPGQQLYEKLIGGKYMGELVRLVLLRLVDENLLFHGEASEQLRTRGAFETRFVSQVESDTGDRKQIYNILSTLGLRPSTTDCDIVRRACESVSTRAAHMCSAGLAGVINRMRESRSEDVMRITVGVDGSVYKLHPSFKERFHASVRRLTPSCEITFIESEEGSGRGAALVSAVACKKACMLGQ
Description: biochemical.
On to `COCCC(Oc1ncnc2c1cnn2-c1ccccc1OC)C(=O)Nc1ccc(C)cn1` (centres unmarked) [Example 22, 4-Methoxy-2-{[1-(2-methoxyphenyl)-1H-pyrazolo[3,4-d]pyrimidin-4-yl]oxy}-N-(5-methylpyridin-2-yl)butanamide], for which the EC50 was 190 nM. Consider `COCC[C@@H](Oc1ncnc2c1cnn2-c1ccccc1OC)C(=O)Nc1ccc(C)cn1` [Example 23, (R)-4-Methoxy-2-{[1-(2-methoxyphenyl)-1H-pyrazolo[3,4-d]pyrimidin-4-yl]oxy}-N-(5-methylpyridin-2-yl)butanamide], for which the EC50 is not below 100000 nM. As for `COCC[C@H](Oc1ncnc2c1cnn2-c1ccccc1OC)C(=O)Nc1ccc(C)cn1` [Example 24, (S)-4-methoxy-2-{[1-(2-methoxyphenyl)-1H-pyrazolo[3,4-d]pyrimidin-4-yl]oxy}-N-(5-methylpyridin-2-yl)butanamide], the figure is 120 nM; as for `COCCC(Oc1ncnc2c1cnn2-c1ccc(F)cc1F)C(=O)Nc1ccc(C)cn1` (centres unmarked) [Example 25, 2-{[1-(2,4-Difluorophenyl)-1H-pyrazolo[3,4-d]pyrimidin-4-yl]oxy}-4-methoxy-N-(5-methylpyridin-2-yl)butanamide], 1200 nM.

With `COCC[C@@H](Oc1ncnc2c1cnn2-c1ccc(F)cc1F)C(=O)Nc1ccc(C)cn1` [Example 26, (R)-2-{[1-(2,4-Difluorophenyl)-1H-pyrazolo[3,4-d]pyrimidin-4-yl]oxy}-4-methoxy-N-(5-methylpyridin-2-yl)butanamide], the EC50 amounted to 35000 nM. Take `COCC[C@H](Oc1ncnc2c1cnn2-c1ccc(F)cc1F)C(=O)Nc1ccc(C)cn1` [Example 27, (S)-2-{[1-(2,4-difluorophenyl)-1H-pyrazolo[3,4-d]pyrimidin-4-yl]oxy}-4-methoxy-N-(5-methylpyridin-2-yl)butanamide]: the EC50 was 1000 nM. With `COCCC(Oc1ncnc2c1cnn2-c1cccc(C)c1)C(=O)Nc1ccc(C)cn1` (centres unmarked) [Example 31, 4-Methoxy-2-{[1-(3-methylphenyl)-1H-pyrazolo[3,4-d]pyrimidin-4-yl]oxy}-N-(5-methylpyridin-2-yl)butanamide], the EC50 came out at 350 nM.

With `COCC[C@@H](Oc1ncnc2c1cnn2-c1cccc(C)c1)C(=O)Nc1ccc(C)cn1` [Example 32, (R)-4-Methoxy-2-{[1-(3-methylphenyl)-1H-pyrazolo[3,4-d]pyrimidin-4-yl]oxy}-N-(5-methylpyridin-2-yl)butanamide], the EC50 is not below 100000 nM.

For `COCC[C@H](Oc1ncnc2c1cnn2-c1cccc(C)c1)C(=O)Nc1ccc(C)cn1` [Example 33, (S)-4-methoxy-2-{[1-(3-methylphenyl)-1H-pyrazolo[3,4-d]pyrimidin-4-yl]oxy}-N-(5-methylpyridin-2-yl)butanamide], the EC50 is more than 1700 nM. `COCCC(Oc1ncnc2c1cnn2-c1ccccn1)C(=O)Nc1ccc(C)cn1` (centres unmarked) [Example 34, 4-Methoxy-N-(5-methylpyridin-2-yl)-2-[(1-pyridin-2-yl-1H-pyrazolo[3,4-d]pyrimidin-4-yl)oxy]butanamide]: the EC50 is 1900 nM. As to `COCCC(Oc1ncnc2c1cnn2-c1ccccc1OC)C(=O)Nc1nc(C)cs1` (centres unmarked) [Example 35, 4-Methoxy-2-{[1-(2-methoxyphenyl)-1H-pyrazolo[3,4-d]pyrimidin-4-yl]oxy}-N-(4-methyl-1,3-thiazol-2-yl)butanamide], the EC50 was found to be 2100 nM. As to `COCC[C@@H](Oc1ncnc2c1cnn2-c1ccccc1OC)C(=O)Nc1nc(C)cs1` [Example 36, (R)-4-Methoxy-2-{[1-(2-methoxyphenyl)-1H-pyrazolo[3,4-d]pyrimidin-4-yl]oxy}-N-(4-methyl-1,3-thiazol-2-yl)butanamide], the EC50 was not below 100000 nM. As for `COCC[C@H](Oc1ncnc2c1cnn2-c1ccccc1OC)C(=O)Nc1nc(C)cs1` [Example 37, (S)-4-methoxy-2-{[1-(2-methoxyphenyl)-1H-pyrazolo[3,4-d]pyrimidin-4-yl]oxy}-N-(4-methyl-1,3-thiazol-2-yl)butanamide], the figure is 1300 nM; as for `CCCCC(Oc1ncnc2c1cnn2-c1ccccc1Cl)C(=O)Nc1ccc(C)cn1` (centres unmarked) [Example 38, 2-{[1-(2-chlorophenyl)-1H-pyrazolo[3,4-d]pyrimidin-4-yl]oxy}-N-(5-methylpyridin-2-yl)hexanamide], 20 nM; as for `CCCCC(Oc1ncnc2c1cnn2C)C(=O)Nc1ccc(C)cn1` (centres unmarked) [Example 39, 2-[(1-methyl-1H-pyrazolo[3,4-d]pyrimidin-4-yl)oxy]-N-(5-methylpyridin-2-yl)hexanamide], 11000 nM.

For `CCCCC(Oc1ncnc2c1cnn2-c1ccccc1Cl)C(=O)Nc1cnc(C)cn1` (centres unmarked) [Example 40, 2-{[1-(2-chlorophenyl)-1H-pyrazolo[3,4-d]pyrimidin-4-yl]oxy}-N-(5-methylpyrazin-2-yl)hexanamide], the EC50 stood at 140 nM.

Regarding `CCC(Oc1ncnc2c1cnn2-c1ccccc1OC)C(=O)Nc1ccc(C)cn1` (centres unmarked) [Example 42, 2-{[1-(2-Methoxyphenyl)-1H-pyrazolo[3,4-d]pyrimidin-4-yl]oxy}-N-(5-methylpyridin-2-yl)butanamide], the EC50 was determined as 410 nM.

For `CC[C@@H](Oc1ncnc2c1cnn2-c1ccccc1OC)C(=O)Nc1ccc(C)cn1` [Example 43, (2R)-2-{[1-(2-Methoxyphenyl)-1H-pyrazolo[3,4-d]pyrimidin-4-yl]oxy}-N-(5-methylpyridin-2-yl)butanamide], the EC50 stood at 4200 nM.

Regarding `COc1ccccc1-n1ncc2c(OC(C)C(=O)Nc3ccc(C)cn3)ncnc21` (centres unmarked) [Example 44, 2-{[1-(2-Methoxyphenyl)-1H-pyrazolo[3,4-d]pyrimidin-4-yl]oxy}-N-(5-methylpyridin-2-yl)propanamide], the EC50 is 3400 nM. As to `Cc1ccc(NC(=O)[C@H](CCN(C)C)Oc2ncnc3c2cnn3-c2ccccc2Cl)nc1` [Example 47, (2S)-2-{[1-(2-chlorophenyl)-1H-pyrazolo[3,4-d]pyrimidin-4-yl]oxy}-4-(dimethylamino)-N-(5-methylpyridin-2-yl)butanamide], the EC50 amounted to 1000 nM. Take `CC(=O)NCC(Oc1ncnc2c1cnn2-c1ccccc1Cl)C(=O)Nc1nc(C)cs1` (centres unmarked) [Example 48, 3-Acetamido-2-{[1-(2-chlorophenyl)-1h-pyrazolo[3,4-d]pyrimidin-4-yl]oxy}-n-(4-methyl-1,3-thiazol-2-yl)propanamide]: the EC50 came to 11000 nM. For the molecule `Cc1ccc(NC(=O)C(CCC(=O)O)Oc2ncnc3c2cnn3-c2ccccc2Cl)nc1` (centres unmarked) [Example 49, 4-{[1-(2-chlorophenyl)-1H-pyrazolo[3,4-d]pyrimidin-4-yl]oxy}-5-[(5-methylpyridin-2-yl)amino]-5-oxopentanoic acid], the EC50 came out at 34000 nM.

On to `Cc1ccc(NC(=O)C(CCC(N)=O)Oc2ncnc3c2cnn3-c2ccccc2Cl)nc1` (centres unmarked) [Example 50, 2-{[1-(2-chlorophenyl)-1H-pyrazolo[3,4-d]pyrimidin-4-yl]oxy}-N1-(5-methylpyridin-2-yl)pentanediamide], for which the EC50 came to 590 nM.

Regarding `CNC(=O)CCC(Oc1ncnc2c1cnn2-c1ccccc1Cl)C(=O)Nc1ccc(C)cn1` (centres unmarked) [Example 51, 2-{[1-(2-chlorophenyl)-1H-pyrazolo[3,4-d]pyrimidin-4-yl]oxy}-N5-methyl-N1-(5-methylpyridin-2-yl)pentanediamide], the EC50 stood at 4400 nM. With `COCCOCCC(Sc1ncnc2c1cnn2-c1ccccc1Cl)C(=O)Nc1nc(C)cs1` (centres unmarked) [Example 52, 2-{[1-(2-chlorophenyl)-1H-pyrazolo[3,4-d]pyrimidin-4-yl]thio}-4-(2-methoxyethoxy)-N-(4-methyl-1,3-thiazol-2-yl)butanamide] the figure was 2900 nM; with `COCCC(Sc1ncnc2c1cnn2-c1ccccc1Cl)C(=O)Nc1nc(C)cs1` (centres unmarked) [Example 53, 2-{[1-(2-chlorophenyl)-1H-pyrazolo[3,4-d]pyrimidin-4-yl]thio}-4-methoxy-N-(4-methyl-1,3-thiazol-2-yl)butanamide], 780 nM; with `CCC(C)C(Sc1ncnc2c1cnn2-c1ccccc1Cl)C(=O)Nc1nc(C)cs1` (centres unmarked) [Example 54, 2-{[1-(2-chlorophenyl)-1H-pyrazolo[3,4-d]pyrimidin-4-yl]thio}-3-methyl-N-(4-methyl-1,3-thiazol-2-yl)pentanamide], 4000 nM. With `CCC(C)C(Sc1ncnc2c1cnn2-c1ccccc1Cl)C(=O)Nc1ccon1` (centres unmarked) [Example 55, 2-{[1-(2-chlorophenyl)-1H-pyrazolo[3,4-d]pyrimidin-4-yl]thio}-N-isoxazol-3-yl-3-methylpentanamide] the figure was more than 20000 nM. As for `CCC(C)C(Sc1ncnc2c1cnn2-c1ccccc1Cl)C(=O)Nc1ccc(C)cn1` (centres unmarked) [Example 56, 2-{[1-(2-chlorophenyl)-1H-pyrazolo[3,4-d]pyrimidin-4-yl]thio}-3-methyl-N-(5-methylpyridin-2-yl)pentanamide], the figure is 3100 nM.

`COCCOCCC(Sc1ncnc2c1cnn2C(C)C)C(=O)Nc1nc(C)cs1` (centres unmarked) [Example 57, 2-[(1-Isopropyl-1H-pyrazolo[3,4-d]pyrimidin-4-yl)thio]-4-(2-methoxyethoxy)-N-(4-methyl-1,3-thiazol-2-yl)butanamide]: the EC50 was 30000 nM. With `COCCOCCC(Sc1ncnc2c1cnn2C(C)C)C(=O)Nc1ccc(C)cn1` (centres unmarked) [Example 58, 2-[(1-Isopropyl-1H-pyrazolo[3,4-d]pyrimidin-4-yl)thio]-4-(2-methoxyethoxy)-N-(5-methylpyridin-2-yl)butanamide] the figure was 1950 nM; with `CCCCC(Sc1ncnc2c1cnn2-c1ccccc1Cl)C(=O)Nc1nc(C)cs1` (centres unmarked) [Example 59, 2-{[1-(2-chlorophenyl)-1h-pyrazolo[3,4-]pyrimidin-4-yl]thio}-n-(4-methyl-1,3-thiazol-2-yl)hexanamide], 650 nM.

What is called EC50 is the concentration that produces a half-maximal response.
